# According to PMC6018554, “2-[2-(4-(trifluoromethyl)phenylamino)thiazol-4-yl]acetic acid (Activator-3) is a potent activator of AMPK” (Scientific Reports, 2018):
# Tests used:
# Format in all cases: biochemical
# [1] = target: T1, recombinant human AMPK α1β1γ1 (Homo sapiens, UniProt P54619); test: In vitro AMP kinase assay (pACC ELISA), α1β1γ1
# T1 construct: purchased SignalChem P47-10H-05/P48-10H-05 (for all four isozymes together); host or cells: baculovirus expression
# From the text: Having observed the effect of Activator-3 on the activation of AMPK in cell based assays, we next examined whether Activator-3 could activate AMPK directly or not. […] The activity of recombinant human AMPK (α1β1γ1, α2β1γ1, α2β2γ2 and α2β2γ3) in the presence of vehicle was considered as 100%. The EC50 of Activator-3 for the activation of α1β1γ1, α2β1γ1 and α2β2γ2 isozymes were similar. However, the activity of Activator-3 against α2β2γ3 was marginally higher (Fig. 1C).
# (§1) A high binding Enzyme Immuno Assay (EIA) 96-well plate (Sigma: Cat# CLS3590) was coated with Acetyl CoA Carboxylase 2 (ACC: 175–271 amino acids) peptide, a direct substrate for AMPK, 100 ng per well (1:1000 ratio, Cat# 12–491, Upstate biotechnology) and incubated overnight at 25 °C. Reaction mixture was incubated at 30 °C for 2 h and reaction was stopped by washing the plate with 0.05% Tween 20 followed by incubation with pACC primary antibody and rabbit secondary antibody as described in cell based ELISA section. Assay buffer is composed of 10 mM DTT, 100 mM magnesium acetate, 50 μM ATP and 10 mM HEPES.
# [2] = test system: human recombinant AMPK isozymes; test: In vitro AMP kinase assays, isozymes taken together
# Description: as §1
# [3] = test system: panel of 100 protein kinases; test: Cell-free kinase panel (Kinexus), whole panel; conditions: 10 µM
# Description: To determine whether Activator-3 affects the activity of any other protein kinases, we screened it in cell-free assays against a panel of 100 protein kinases (Kinexus, Canada). […] Three kinases, DDR1 (−79%), SRC (−71%) and ALK5 (−61%) were inhibited by Activator-3 by more than 50% at 10 µM.
# [4] = target: human recombinant AMPK α2β1γ1 (Homo sapiens, UniProt P54619); test: Phosphatase protection assay (PP2C); design: host or cells: baculovirus expression; conditions: 10–100 nM
# Chain of human recombinant AMPK α2β1γ1 (P54619 whole entry): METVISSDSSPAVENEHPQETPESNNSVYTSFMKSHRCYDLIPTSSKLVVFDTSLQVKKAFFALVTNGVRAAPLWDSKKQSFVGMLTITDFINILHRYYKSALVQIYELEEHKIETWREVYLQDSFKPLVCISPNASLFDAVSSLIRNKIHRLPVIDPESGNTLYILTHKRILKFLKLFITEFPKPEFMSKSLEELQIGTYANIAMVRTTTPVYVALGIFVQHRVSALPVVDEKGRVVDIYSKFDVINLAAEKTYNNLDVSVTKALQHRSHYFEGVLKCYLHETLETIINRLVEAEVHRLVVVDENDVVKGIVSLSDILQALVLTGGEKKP
# Chain of human recombinant AMPK α2β1γ1 (P54646 whole entry partner): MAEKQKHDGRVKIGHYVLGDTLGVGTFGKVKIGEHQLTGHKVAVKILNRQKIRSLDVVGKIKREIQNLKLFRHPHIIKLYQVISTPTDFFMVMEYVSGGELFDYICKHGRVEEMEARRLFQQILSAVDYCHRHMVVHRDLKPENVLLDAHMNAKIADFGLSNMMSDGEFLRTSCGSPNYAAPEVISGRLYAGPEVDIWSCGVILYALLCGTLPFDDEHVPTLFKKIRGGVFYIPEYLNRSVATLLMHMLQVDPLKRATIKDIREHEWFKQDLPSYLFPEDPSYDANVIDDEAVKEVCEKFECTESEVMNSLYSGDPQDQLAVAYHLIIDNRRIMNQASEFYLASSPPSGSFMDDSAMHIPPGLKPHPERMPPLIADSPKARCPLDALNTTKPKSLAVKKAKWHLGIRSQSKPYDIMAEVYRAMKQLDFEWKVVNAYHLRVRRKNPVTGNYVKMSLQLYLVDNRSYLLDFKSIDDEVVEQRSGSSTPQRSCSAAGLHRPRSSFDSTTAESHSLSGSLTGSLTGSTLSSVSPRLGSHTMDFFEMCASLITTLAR
# Chain of human recombinant AMPK α2β1γ1 (Q9Y478 whole entry partner): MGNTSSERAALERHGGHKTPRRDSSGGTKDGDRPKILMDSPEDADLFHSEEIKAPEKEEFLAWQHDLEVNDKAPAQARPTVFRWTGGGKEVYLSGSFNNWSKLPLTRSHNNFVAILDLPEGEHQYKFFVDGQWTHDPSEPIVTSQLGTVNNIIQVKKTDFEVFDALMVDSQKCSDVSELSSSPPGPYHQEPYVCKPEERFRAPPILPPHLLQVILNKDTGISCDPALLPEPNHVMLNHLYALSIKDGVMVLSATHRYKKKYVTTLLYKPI
# Description: The reaction was stopped by adding SDS-loading dye immediately to the reaction mixtures followed by boiling the samples at 95 °C for 10′. These samples were run on a 10% SDS-PAGE and probed for AMPK and pAMPK (1:1000; Cell Signaling Technologies).
# T1 sequence (P54619 whole entry): as the sequence (P54619 whole entry) above
# T1 sequence (Q13131 whole entry partner): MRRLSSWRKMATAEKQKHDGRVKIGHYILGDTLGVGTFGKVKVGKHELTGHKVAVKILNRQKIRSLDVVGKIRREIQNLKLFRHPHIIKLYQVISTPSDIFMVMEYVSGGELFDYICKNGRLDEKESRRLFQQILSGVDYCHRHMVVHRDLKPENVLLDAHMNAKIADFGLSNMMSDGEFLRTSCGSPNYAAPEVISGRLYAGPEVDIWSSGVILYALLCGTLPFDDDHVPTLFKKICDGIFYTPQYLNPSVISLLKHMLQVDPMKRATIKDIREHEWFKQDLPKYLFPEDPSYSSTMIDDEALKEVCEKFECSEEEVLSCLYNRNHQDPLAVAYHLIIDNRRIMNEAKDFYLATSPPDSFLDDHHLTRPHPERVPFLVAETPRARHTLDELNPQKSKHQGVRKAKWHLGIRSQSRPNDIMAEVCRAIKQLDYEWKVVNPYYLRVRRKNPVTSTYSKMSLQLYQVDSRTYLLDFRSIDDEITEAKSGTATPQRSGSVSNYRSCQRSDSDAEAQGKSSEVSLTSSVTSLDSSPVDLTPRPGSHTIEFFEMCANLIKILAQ
# T1 sequence (Q9Y478 whole entry partner): as the sequence (Q9Y478 whole entry partner) above
smiles,measurement,setting,value
"O=C(O)Cc1csc(Nc2ccc(C(F)(F)F)cc2)n1 [Activator-3, 2-[2-(4-(trifluoromethyl)phenylamino)thiazol-4-yl]acetic acid]",cooperativity of AMPK activation at high ATP,"[1]; ATP 2 mM vs 20 µM, Activator-3 0–1 µM",does not exhibit co-operative binding
same,reduction of AMPK activity stimulated by 100 µM AMP,[1]; Activator-3 1 nM to 10 μM with 100 µM AMP,~ 50%
same,EC50,[1]; read-out: EC50 allosteric activation hα1β1γ1,~38 nM
same,activation of AMPK,[2],30–40%
same,"effect on kinase activity, majority of panel",[3],not affected
same,protection against PP2C mediated dephosphorylation of Thr172 AMPK,[4],provided protection
